Measurements published in the kinase profiling compilation of Christmann-Franck et al. (2016).

What was measured:
Assay in all cases: KINOMEscan competition binding
Conditions in all cases: compound 10.0 µM
[1] = target: ACVR2B (human) (UniProt Q13705)
[2] = target: AKT2 (human) (UniProt P31751)
[3] = target: AURKB (human) (UniProt Q96GD4)
[4] = target: BRSK1 (human) (UniProt Q8TDC3)
[5] = target: CAMK2A (human) (UniProt Q9UQM7)
[6] = target: CHUK (human) (UniProt O15111)
[7] = target: CLK1 (human) (UniProt P49759)
[8] = target: CSNK1D (human) (UniProt P48730)
[9] = target: CaMK1 (human) (UniProt Q14012)
CaMK1 (human), sequence (Q14012 whole entry, looked up): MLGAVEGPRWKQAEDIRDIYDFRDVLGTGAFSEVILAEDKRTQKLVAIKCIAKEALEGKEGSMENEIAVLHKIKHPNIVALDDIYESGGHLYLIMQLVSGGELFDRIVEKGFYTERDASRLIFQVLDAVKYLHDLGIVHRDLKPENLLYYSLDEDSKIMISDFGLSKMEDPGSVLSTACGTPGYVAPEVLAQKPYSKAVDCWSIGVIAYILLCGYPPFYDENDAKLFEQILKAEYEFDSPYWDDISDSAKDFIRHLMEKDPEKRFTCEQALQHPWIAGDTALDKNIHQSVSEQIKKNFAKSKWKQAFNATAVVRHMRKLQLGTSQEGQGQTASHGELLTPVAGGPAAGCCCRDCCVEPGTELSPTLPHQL

[10] = target: DAPK1 (human) (UniProt P53355)
[11] = target: DYRK1B (human) (UniProt Q9Y463)
DYRK1B (human), sequence (Q9Y463 whole entry, looked up): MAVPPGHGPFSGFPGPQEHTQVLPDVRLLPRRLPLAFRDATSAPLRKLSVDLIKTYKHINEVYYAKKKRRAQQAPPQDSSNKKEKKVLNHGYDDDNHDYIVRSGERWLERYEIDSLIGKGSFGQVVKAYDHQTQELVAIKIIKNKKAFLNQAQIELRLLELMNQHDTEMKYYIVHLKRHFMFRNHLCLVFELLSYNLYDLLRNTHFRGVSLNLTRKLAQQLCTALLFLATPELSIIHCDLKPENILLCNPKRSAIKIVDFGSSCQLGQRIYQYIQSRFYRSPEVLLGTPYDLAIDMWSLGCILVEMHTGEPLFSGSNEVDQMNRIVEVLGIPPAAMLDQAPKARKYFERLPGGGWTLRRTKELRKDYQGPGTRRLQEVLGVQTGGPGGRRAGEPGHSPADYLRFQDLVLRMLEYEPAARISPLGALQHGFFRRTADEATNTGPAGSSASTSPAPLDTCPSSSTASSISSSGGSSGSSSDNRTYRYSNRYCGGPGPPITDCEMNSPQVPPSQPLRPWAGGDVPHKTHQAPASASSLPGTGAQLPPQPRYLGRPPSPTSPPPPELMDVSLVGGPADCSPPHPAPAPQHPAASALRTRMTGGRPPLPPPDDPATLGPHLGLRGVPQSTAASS

[12] = target: EIF2AK2 (human) (UniProt P19525)
EIF2AK2 (human), sequence (P19525 whole entry, looked up): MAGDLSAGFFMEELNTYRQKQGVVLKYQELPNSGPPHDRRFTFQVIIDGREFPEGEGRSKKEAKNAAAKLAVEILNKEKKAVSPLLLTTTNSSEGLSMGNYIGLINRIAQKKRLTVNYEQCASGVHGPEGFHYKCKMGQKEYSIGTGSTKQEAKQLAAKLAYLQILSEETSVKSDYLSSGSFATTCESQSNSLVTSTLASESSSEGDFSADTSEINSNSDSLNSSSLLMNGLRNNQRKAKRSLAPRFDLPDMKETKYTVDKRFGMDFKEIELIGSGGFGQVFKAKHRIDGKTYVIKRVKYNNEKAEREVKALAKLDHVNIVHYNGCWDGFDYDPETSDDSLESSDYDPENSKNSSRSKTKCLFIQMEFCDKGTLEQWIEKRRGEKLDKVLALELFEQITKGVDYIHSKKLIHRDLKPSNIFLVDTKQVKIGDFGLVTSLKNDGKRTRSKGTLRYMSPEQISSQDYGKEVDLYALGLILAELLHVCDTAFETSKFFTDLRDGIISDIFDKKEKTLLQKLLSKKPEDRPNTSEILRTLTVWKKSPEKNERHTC

[13] = target: EPHA4 (human) (UniProt P54764)
[14] = target: ERBB2 (human) (UniProt P04626)
ERBB2 (human), sequence (P04626 whole entry, looked up): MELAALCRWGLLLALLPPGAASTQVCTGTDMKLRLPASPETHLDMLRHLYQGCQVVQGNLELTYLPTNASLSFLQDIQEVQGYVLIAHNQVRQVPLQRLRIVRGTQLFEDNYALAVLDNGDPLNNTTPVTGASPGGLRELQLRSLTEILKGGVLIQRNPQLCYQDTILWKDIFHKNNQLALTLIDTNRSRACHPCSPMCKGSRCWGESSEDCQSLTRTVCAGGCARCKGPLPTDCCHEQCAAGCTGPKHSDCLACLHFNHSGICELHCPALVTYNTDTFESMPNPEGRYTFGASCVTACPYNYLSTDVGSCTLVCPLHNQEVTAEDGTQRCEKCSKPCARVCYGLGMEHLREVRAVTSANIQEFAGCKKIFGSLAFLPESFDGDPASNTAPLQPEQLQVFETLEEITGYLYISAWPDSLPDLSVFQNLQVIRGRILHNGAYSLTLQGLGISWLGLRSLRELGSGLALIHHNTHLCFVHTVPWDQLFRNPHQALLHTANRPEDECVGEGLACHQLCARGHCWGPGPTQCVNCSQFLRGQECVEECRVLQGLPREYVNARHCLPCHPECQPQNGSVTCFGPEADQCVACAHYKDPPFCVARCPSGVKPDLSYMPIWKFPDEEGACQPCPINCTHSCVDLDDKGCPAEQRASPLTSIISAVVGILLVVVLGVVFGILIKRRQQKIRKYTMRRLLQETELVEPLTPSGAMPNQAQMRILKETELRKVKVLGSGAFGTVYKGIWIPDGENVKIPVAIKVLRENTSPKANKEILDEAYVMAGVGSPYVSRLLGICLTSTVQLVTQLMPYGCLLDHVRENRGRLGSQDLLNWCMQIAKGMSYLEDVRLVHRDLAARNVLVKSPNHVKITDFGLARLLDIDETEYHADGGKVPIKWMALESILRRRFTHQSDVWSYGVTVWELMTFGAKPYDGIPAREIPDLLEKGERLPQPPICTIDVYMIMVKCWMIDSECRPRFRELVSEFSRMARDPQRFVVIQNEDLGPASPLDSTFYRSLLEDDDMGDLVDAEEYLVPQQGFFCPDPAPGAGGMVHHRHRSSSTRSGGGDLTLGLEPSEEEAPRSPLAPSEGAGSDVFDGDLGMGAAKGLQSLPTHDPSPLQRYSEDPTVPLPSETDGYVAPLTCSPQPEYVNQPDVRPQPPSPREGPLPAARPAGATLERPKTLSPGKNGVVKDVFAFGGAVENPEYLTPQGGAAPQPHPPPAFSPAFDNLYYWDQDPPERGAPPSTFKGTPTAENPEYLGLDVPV

[15] = target: FYN (human) (UniProt P06241)
FYN (human), sequence (P06241 whole entry, looked up): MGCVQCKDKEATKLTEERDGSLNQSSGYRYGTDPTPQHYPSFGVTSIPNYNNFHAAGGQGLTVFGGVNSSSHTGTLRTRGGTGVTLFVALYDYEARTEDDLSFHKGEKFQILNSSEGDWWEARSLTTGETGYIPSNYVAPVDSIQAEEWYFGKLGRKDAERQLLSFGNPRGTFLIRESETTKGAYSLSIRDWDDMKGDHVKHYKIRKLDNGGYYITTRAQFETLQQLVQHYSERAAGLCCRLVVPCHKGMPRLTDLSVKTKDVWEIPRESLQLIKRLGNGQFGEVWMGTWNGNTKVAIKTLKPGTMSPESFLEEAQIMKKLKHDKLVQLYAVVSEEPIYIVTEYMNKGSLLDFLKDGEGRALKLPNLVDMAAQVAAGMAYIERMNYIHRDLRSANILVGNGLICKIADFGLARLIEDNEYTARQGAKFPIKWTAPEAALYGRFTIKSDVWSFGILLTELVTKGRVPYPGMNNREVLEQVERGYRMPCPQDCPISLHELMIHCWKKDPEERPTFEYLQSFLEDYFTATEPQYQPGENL

[16] = target: HIPK1 (human) (UniProt Q86Z02)
[17] = target: ITK (human) (UniProt Q08881)
[18] = target: LTK (human) (UniProt P29376)
[19] = target: MAP3K12 (human) (UniProt Q12852)
[20] = target: MAP4K1 (human) (UniProt Q92918)
[21] = target: MAPK1 (human) (UniProt P28482)
MAPK1 (human), sequence (P28482 whole entry, looked up): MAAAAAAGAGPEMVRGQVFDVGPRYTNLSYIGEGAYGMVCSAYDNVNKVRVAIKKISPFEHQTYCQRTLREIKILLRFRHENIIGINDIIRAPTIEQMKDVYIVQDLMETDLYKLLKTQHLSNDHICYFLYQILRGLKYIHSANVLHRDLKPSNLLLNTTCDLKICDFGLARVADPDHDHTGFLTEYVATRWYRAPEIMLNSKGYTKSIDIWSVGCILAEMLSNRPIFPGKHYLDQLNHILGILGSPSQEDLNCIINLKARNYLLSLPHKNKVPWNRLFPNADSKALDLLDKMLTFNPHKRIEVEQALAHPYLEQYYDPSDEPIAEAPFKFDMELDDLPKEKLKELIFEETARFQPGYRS

[22] = target: MAPK10 (human) (UniProt P53779)
[23] = target: MAPK11 (human) (UniProt Q15759)
[24] = target: MARK1 (human) (UniProt Q9P0L2)
[25] = target: MELK (human) (UniProt Q14680)
[26] = target: MLTK (human) (UniProt Q9NYL2)
[27] = target: MUSK (human) (UniProt O15146)
[28] = target: MYLK4 (human) (UniProt Q86YV6)
[29] = target: NEK9 (human) (UniProt Q8TD19)
[30] = target: PAK3 (human) (UniProt O75914)
[31] = target: PAK4 (human) (UniProt O96013)
[32] = target: PRKCQ (human) (UniProt Q04759)
[33] = target: RPS6KA1 KD1 (human) (UniProt Q15418)
[34] = target: RPS6KA5 KD2 (human) (UniProt O75582)
RPS6KA5 KD2 (human), sequence (O75582 whole entry, looked up): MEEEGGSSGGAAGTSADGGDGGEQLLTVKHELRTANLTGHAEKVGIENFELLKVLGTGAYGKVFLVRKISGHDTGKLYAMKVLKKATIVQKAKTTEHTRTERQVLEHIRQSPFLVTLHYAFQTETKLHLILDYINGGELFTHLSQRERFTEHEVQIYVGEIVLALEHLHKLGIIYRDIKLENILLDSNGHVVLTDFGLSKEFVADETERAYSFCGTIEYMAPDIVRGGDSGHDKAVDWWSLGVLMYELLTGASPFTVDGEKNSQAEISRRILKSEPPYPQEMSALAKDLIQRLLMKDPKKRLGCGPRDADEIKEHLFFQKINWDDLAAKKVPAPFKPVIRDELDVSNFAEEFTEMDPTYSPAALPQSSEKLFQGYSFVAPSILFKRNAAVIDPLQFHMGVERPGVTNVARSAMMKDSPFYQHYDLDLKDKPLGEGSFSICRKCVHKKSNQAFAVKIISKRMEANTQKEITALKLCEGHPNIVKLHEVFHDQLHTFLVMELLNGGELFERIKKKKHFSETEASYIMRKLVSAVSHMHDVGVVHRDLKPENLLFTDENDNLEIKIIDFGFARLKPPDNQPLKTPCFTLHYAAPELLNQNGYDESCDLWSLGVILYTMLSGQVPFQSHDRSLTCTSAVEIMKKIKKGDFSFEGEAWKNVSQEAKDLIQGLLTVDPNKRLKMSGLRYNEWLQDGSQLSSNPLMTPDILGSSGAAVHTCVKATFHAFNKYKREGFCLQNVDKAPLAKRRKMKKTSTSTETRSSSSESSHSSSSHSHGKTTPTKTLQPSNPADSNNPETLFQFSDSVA

[35] = target: STK38L (human) (UniProt Q9Y2H1)
[36] = target: SYK (human) (UniProt P43405)
[37] = target: TEC (human) (UniProt P42680)
[38] = target: TYK2 JH2 pseudokinase (human) (UniProt P29597)
[39] = target: WEE2 (human) (UniProt P0C1S8)
[40] = target: PDGFRB (human) (UniProt P09619)

CAMK2A (human), sequence (Q9UQM7 whole entry, looked up): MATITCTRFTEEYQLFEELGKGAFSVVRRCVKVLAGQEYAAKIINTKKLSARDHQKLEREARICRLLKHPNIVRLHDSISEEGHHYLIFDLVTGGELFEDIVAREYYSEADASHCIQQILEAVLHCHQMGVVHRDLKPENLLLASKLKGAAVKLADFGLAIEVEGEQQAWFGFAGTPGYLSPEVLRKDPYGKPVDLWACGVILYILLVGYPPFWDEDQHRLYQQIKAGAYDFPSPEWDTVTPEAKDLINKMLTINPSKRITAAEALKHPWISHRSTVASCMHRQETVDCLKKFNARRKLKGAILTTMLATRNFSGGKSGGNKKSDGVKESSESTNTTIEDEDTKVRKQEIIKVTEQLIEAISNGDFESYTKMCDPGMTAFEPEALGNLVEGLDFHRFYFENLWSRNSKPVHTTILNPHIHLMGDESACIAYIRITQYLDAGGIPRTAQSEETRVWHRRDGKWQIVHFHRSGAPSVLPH

SMILES: Cn1c(=O)n(-c2ccc(C(C)(C)C#N)cc2)c2c3cc(-c4cnc5ccccc5c4)ccc3ncc21
- kinase still bound, per cent of control [1]: 100%
- kinase still bound, per cent of control [2]: 100%
- kinase still bound, per cent of control [3]: 100%
- kinase still bound, per cent of control [4]: 100%
- kinase still bound, per cent of control [5]: 100%
- kinase still bound, per cent of control [6]: 100%
- kinase still bound, per cent of control [7]: 23%
- kinase still bound, per cent of control [8]: 100%
- kinase still bound, per cent of control [9]: 100%
- kinase still bound, per cent of control [10]: 100%
- kinase still bound, per cent of control [11]: 100%
- kinase still bound, per cent of control [12]: 100%
- kinase still bound, per cent of control [13]: 100%
- kinase still bound, per cent of control [14]: 100%
- kinase still bound, per cent of control [15]: 100%
- kinase still bound, per cent of control [16]: 100%
- kinase still bound, per cent of control [17]: 100%
- kinase still bound, per cent of control [18]: 33%
- kinase still bound, per cent of control [19]: 100%
- kinase still bound, per cent of control [20]: 100%
- kinase still bound, per cent of control [21]: 100%
- kinase still bound, per cent of control [22]: 100%
- kinase still bound, per cent of control [23]: 100%
- kinase still bound, per cent of control [24]: 100%
- kinase still bound, per cent of control [25]: 100%
- kinase still bound, per cent of control [26]: 100%
- kinase still bound, per cent of control [27]: 100%
- kinase still bound, per cent of control [28]: 100%
- kinase still bound, per cent of control [29]: 100%
- kinase still bound, per cent of control [30]: 100%
- kinase still bound, per cent of control [31]: 100%
- kinase still bound, per cent of control [32]: 100%
- kinase still bound, per cent of control [33]: 100%
- kinase still bound, per cent of control [34]: 100%
- kinase still bound, per cent of control [35]: 100%
- kinase still bound, per cent of control [36]: 100%
- kinase still bound, per cent of control [37]: 100%
- kinase still bound, per cent of control [38]: 100%
- kinase still bound, per cent of control [39]: 100%

SMILES: COc1cc(N2CCN(C)CC2)ccc1Nc1nc(N)c(C(=O)c2c(Cl)cccc2Cl)s1
- kinase still bound, per cent of control [1]: 92%
- kinase still bound, per cent of control [2]: 100%
- kinase still bound, per cent of control [3]: 93%
- kinase still bound, per cent of control [4]: 91%
- kinase still bound, per cent of control [5]: 20%
- kinase still bound, per cent of control [6]: 58%
- kinase still bound, per cent of control [7]: 22%
- kinase still bound, per cent of control [8]: 100%
- kinase still bound, per cent of control [9]: 0.75%
- kinase still bound, per cent of control [10]: 85%
- kinase still bound, per cent of control [11]: 42%
- kinase still bound, per cent of control [12]: 75%
- kinase still bound, per cent of control [13]: 90%
- kinase still bound, per cent of control [14]: 100%
- kinase still bound, per cent of control [15]: 89%
- kinase still bound, per cent of control [16]: 69%
- kinase still bound, per cent of control [17]: 91%
- kinase still bound, per cent of control [18]: 4.2%
- kinase still bound, per cent of control [19]: 97%
- kinase still bound, per cent of control [20]: 90%
- kinase still bound, per cent of control [21]: 100%
- kinase still bound, per cent of control [22]: 100%
- kinase still bound, per cent of control [23]: 77%
- kinase still bound, per cent of control [25]: 100%
- kinase still bound, per cent of control [26]: 100%
- kinase still bound, per cent of control [27]: 90%
- kinase still bound, per cent of control [28]: 100%
- kinase still bound, per cent of control [29]: 100%
- kinase still bound, per cent of control [30]: 94%
- kinase still bound, per cent of control [31]: 100%
- kinase still bound, per cent of control [40]: 100%
- kinase still bound, per cent of control [32]: 54%
- kinase still bound, per cent of control [33]: 100%
- kinase still bound, per cent of control [34]: 96%
- kinase still bound, per cent of control [35]: 84%
- kinase still bound, per cent of control [36]: 59%
- kinase still bound, per cent of control [37]: 69%
- kinase still bound, per cent of control [38]: 60%
- kinase still bound, per cent of control [39]: 100%

SMILES: CC[C@@H]1C(=O)N(C)c2cnc(Nc3ccc(C(=O)NC4CCN(C)CC4)cc3OC)nc2N1C1CCCC1
- kinase still bound, per cent of control [1]: 100%
- kinase still bound, per cent of control [2]: 100%
- kinase still bound, per cent of control [3]: 100%
- kinase still bound, per cent of control [4]: 100%
- kinase still bound, per cent of control [5]: 26%
- kinase still bound, per cent of control [6]: 100%
- kinase still bound, per cent of control [7]: 100%
- kinase still bound, per cent of control [9]: 100%
- kinase still bound, per cent of control [10]: 5.4%
- kinase still bound, per cent of control [11]: 100%
- kinase still bound, per cent of control [12]: 100%
- kinase still bound, per cent of control [13]: 100%
- kinase still bound, per cent of control [14]: 100%
- kinase still bound, per cent of control [15]: 100%
- kinase still bound, per cent of control [16]: 100%
- kinase still bound, per cent of control [17]: 100%
- kinase still bound, per cent of control [18]: 24%
- kinase still bound, per cent of control [19]: 100%
- kinase still bound, per cent of control [20]: 100%
- kinase still bound, per cent of control [21]: 100%
- kinase still bound, per cent of control [22]: 100%
- kinase still bound, per cent of control [23]: 100%
- kinase still bound, per cent of control [24]: 100%
- kinase still bound, per cent of control [25]: 29%
- kinase still bound, per cent of control [26]: 100%
- kinase still bound, per cent of control [27]: 100%
- kinase still bound, per cent of control [28]: 100%
- kinase still bound, per cent of control [29]: 100%
- kinase still bound, per cent of control [30]: 100%
- kinase still bound, per cent of control [31]: 100%
- kinase still bound, per cent of control [40]: 100%
- kinase still bound, per cent of control [32]: 100%
- kinase still bound, per cent of control [33]: 100%
- kinase still bound, per cent of control [34]: 14%
- kinase still bound, per cent of control [35]: 100%
- kinase still bound, per cent of control [37]: 100%
- kinase still bound, per cent of control [38]: 100%
- kinase still bound, per cent of control [39]: 100%

SMILES: O=C(O)c1ccc(Nc2ncc3c(n2)-c2ccc(Cl)cc2C(c2c(F)cccc2F)=NC3)cc1
- kinase still bound, per cent of control [1]: 100%
- kinase still bound, per cent of control [2]: 100%
- kinase still bound, per cent of control [3]: 0.3%
- kinase still bound, per cent of control [4]: 100%
- kinase still bound, per cent of control [5]: 69%
- kinase still bound, per cent of control [6]: 100%
- kinase still bound, per cent of control [7]: 63%
- kinase still bound, per cent of control [9]: 78%
- kinase still bound, per cent of control [10]: 48%
- kinase still bound, per cent of control [11]: 91%
- kinase still bound, per cent of control [12]: 100%
- kinase still bound, per cent of control [13]: 11%
- kinase still bound, per cent of control [15]: 17%
- kinase still bound, per cent of control [16]: 14%
- kinase still bound, per cent of control [18]: 62%
- kinase still bound, per cent of control [19]: 100%
- kinase still bound, per cent of control [20]: 71%
- kinase still bound, per cent of control [21]: 100%
- kinase still bound, per cent of control [22]: 100%
- kinase still bound, per cent of control [23]: 99%
- kinase still bound, per cent of control [24]: 100%
- kinase still bound, per cent of control [25]: 81%
- kinase still bound, per cent of control [26]: 93%
- kinase still bound, per cent of control [27]: 93%
- kinase still bound, per cent of control [28]: 89%
- kinase still bound, per cent of control [29]: 100%
- kinase still bound, per cent of control [30]: 52%
- kinase still bound, per cent of control [31]: 90%
- kinase still bound, per cent of control [40]: 34%
- kinase still bound, per cent of control [32]: 98%
- kinase still bound, per cent of control [34]: 74%
- kinase still bound, per cent of control [35]: 100%
- kinase still bound, per cent of control [36]: 78%
- kinase still bound, per cent of control [37]: 2%
- kinase still bound, per cent of control [38]: 100%
- kinase still bound, per cent of control [39]: 89%
